# Experimental data from PMC11873939, “Target Identification with Live-Cell Photoaffinity Labeling and Mechanism of Action Elucidation of ARN23765, a Highly Potent CFTR Corrector” (Journal of Medicinal Chemistry, 2025).
# Key:
# [1] = target: T1, F508del-CFTR (Homo sapiens, UniProt P13569, DEL508-508); set-up: method as in PMID 32128418; conditions: bronchial epithelial cells from F508del-CFTR CF individuals; cited from earlier work
# T1 construct: expressed in transfected cells
# [2] = target: T2, CFTR MSD2 (Homo sapiens, UniProt P13569); assay: Cycloheximide chase assay in transfected HEK293 cells; format: cell-based; conditions: HEK293, 10 nM 24 h, then 6 h of cycloheximide treatment
# T2 construct: A52-tagged MSD2 (residues 837–1196); expressed in transfected cells; host or cells: HEK293 (transient, JetPEI)
# Method: (§1) HEK293 cells were transfected with MSD1- or MSD2-fragments as previously described.[39] After 18 h, cells were treated with either 0.2% DMSO or ARN23765 (10 nM). Following 24 h treatment, the protein synthesis was stopped by addition of a medium containing 0.5 mg/mL cycloheximide and either DMSO (0.2%) or ARN23765 (10 nM). The cells were incubated at 37 °C and lysed at various time periods (0–6 h). The whole cell extracts were then analyzed by WB, as described in the supplementary methods of the Supporting Information.
# [3] = target: T3, CFTR MSD1 (Homo sapiens, UniProt P13569); assay: as above; format: cell-based; conditions: HEK293, 10 nM 24 h, then 6 h of cycloheximide treatment
# T3 construct: MSD1 (residues 1–380); expressed in transfected cells; host or cells: HEK293 (transient, JetPEI)
# Method: as §1
# [4] = target: T1, F508del-CFTR; assay: Live-cell photoaffinity labeling, streptavidin pull-down and CFTR Western blot; format: binding; conditions: F508del-CFTR CFBE41o- cells, 25-fold excess (25 μM) competitor 30 min before probe (1 μM)
# Method: Wt-CFTR or F508del-CFTR CFBE41o- cells were plated at 2–2.5 × 10^6 cells/plate in 6 cm diameter dishes. The day after, sodium butyrate (5–2.5 mM) was added for 24 h; next, the medium was exchanged with fresh one supplemented with DMSO (0.25%) (276855, Sigma-Aldrich) or probe (1 μM). For competition experiments, a 25-fold excess of ARN23765 (25 μM) was added 30 min before probe’s addition. For the analysis of “corrected” F508del-CFTR, F508del-CFTR CFBE41o- cells were kept at 27 °C for 24 h before adding the probes. Probes were incubated with cells for 2 h, then the medium was removed, and plates were washed twice with phosphate buffer saline (PBS). Cells were placed on ice and irradiated for 5 min at a wavelength of 365 nm using a 100-W UV-lamp (95–0127–02 model B100-AP, Analytik Jena). Cells were harvested with trypsin (T4299, Sigma-Aldrich), washed with PBS (D8537, Sigma-Aldrich), and pellets were stored at −80 °C until used, centrifuged at 300 × g and washed twice with PBS (D8537, Sigma-Aldrich). Pellets from in-cell photoaffinity labeling with alkyne-probes (PAP_1 and PAP_2) were lysed in PBS plus protease inhibitor cocktail (78429, Thermo Scientific) by sonication. The suspension was centrifuged at 800 × g for 20 min at 4 °C to discard nuclei and cell debris. The total extracted proteins were quantified with the bicinchoninic acid (BCA) protein assay (23225, Thermo Scientific) and subjected to CuAAC before proceeding with pull-down. Pellets from in-cell photoaffinity labeling with desthio-biotinylated (DS-biot) probes (PAP_1 DS-biot, PAP_2 DS-biot, PAP_N1 DS-biot, PAP_N2 DS-biot) were lysed with a modified RIPA buffer [50 mM tris-HCl pH 8, 150 mM NaCl, 0.5% Triton-X100, 0.2% SDS, 1 mM ethylenediaminetetraacetic acid (EDTA)] supplemented with protease inhibitor cocktail and centrifuged at 10.000× g for 10 min. The protein content in the supernatant was quantified by BCA protein assay. Protein lysate (200 μg) was diluted to 800 μL and the Triton-X100 percentage was reduced to 0.2% before proceeding to pull-down.
# High capacity streptavidin agarose (20359, Thermo Scientific) (25 μL) was added to PAP-labeled cell extracts for 1 h at room temperature under gentle rotation. The streptavidin beads were collected by centrifugation and washed four times with lysis buffer. Resin-bound proteins were eluted with 45 μL of 5 mM biotin (B4501, Sigma-Aldrich) for 30 min at room temperature and analyzed with Western blot for CFTR expression. Input samples (4 and 8 μg for wt-CFTR and F508del-CFTR CFBE41o-, respectively) were collected immediately before incubation with streptavidin resin. Input and pulled-down samples were analyzed with WB as described in the supplementary methods.
# T1 sequence (P13569 with tags, fused parts or gaps DEL508-508): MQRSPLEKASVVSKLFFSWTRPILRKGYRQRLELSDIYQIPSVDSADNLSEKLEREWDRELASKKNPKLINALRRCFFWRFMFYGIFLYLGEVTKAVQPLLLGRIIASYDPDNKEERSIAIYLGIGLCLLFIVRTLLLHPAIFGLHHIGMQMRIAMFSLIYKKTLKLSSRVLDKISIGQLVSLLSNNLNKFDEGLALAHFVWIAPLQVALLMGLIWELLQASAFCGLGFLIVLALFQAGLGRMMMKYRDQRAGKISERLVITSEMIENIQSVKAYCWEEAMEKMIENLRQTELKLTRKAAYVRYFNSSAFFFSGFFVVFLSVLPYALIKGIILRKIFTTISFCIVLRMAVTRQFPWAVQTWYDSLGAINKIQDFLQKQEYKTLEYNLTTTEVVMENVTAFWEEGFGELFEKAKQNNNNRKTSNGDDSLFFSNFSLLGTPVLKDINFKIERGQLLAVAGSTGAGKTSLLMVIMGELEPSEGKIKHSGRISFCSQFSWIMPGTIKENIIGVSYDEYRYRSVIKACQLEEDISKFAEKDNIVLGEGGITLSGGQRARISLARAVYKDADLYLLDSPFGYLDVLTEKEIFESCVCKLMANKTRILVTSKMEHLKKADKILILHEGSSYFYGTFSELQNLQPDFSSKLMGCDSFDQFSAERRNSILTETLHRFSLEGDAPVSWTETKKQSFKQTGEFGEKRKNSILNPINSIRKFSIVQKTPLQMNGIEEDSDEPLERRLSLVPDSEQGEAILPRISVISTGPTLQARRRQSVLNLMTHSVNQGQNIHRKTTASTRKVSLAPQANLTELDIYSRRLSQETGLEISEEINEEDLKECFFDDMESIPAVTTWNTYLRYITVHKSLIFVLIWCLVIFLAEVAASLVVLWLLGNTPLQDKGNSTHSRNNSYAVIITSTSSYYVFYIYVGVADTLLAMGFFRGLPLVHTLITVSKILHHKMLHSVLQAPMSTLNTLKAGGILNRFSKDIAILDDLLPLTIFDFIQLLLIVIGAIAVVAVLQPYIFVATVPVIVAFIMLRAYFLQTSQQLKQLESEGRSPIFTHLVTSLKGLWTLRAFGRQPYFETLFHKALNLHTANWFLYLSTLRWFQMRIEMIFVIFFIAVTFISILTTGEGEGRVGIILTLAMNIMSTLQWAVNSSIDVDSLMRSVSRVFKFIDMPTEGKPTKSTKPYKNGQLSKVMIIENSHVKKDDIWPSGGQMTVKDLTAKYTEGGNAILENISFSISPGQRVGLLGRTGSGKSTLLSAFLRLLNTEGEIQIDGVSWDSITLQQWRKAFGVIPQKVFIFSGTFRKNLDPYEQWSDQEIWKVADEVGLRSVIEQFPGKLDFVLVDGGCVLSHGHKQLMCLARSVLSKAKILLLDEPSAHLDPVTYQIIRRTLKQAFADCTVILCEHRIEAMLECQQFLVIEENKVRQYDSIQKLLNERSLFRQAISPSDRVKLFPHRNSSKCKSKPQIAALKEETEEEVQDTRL
# T2 sequence (P13569 837-1196): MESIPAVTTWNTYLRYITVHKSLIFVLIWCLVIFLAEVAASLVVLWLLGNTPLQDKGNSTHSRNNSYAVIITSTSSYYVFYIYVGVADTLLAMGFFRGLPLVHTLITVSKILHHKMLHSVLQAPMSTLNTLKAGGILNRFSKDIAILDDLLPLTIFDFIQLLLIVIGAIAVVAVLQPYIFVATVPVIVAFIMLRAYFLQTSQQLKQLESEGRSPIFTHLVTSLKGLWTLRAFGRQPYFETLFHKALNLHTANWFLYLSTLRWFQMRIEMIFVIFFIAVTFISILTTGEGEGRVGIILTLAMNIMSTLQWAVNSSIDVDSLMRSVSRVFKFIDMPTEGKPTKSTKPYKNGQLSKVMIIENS
# T3 sequence (P13569 1-380): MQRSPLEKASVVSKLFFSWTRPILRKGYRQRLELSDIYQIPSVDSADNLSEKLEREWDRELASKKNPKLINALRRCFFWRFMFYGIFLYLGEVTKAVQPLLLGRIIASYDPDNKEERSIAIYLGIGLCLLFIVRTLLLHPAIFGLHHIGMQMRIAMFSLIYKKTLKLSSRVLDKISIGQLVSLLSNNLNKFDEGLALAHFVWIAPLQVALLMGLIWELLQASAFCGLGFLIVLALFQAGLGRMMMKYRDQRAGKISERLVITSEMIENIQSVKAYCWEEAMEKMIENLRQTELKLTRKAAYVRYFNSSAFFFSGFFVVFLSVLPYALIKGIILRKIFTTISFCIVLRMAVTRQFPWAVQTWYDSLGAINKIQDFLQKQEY
structure (smiles),measurement,setting,value
CN(C(=O)c1cccc(-n2nc(C(F)(F)F)c3c2[C@@H](Oc2ccc(C(=O)O)cc2)CCC3)c1)c1ccc2c(c1)OC(F)(F)O2 [ARN23765],Potency in rescuing CFTR function,[1],subnanomolar
same,MSD2 stability,[2],no effect
same,MSD1 half-life,[3],increased
same,Competition: CFTR recovered in pull-down by PAP_1 DS-biot or PAP_2 DS-biot after preincubation with competitor,[4],markedly reduced amount of the recovered protein
